In US7858635B2 (priority 2005, dated 2010):

How the values were obtained:
M4 muscarinic receptor = molecular target: T1, M4 muscarinic receptor (Homo sapiens, UniProt P08173); experiment: Functional mobilization of intracellular calcium (FLIPR, Fluo-3), M4-CHO cells; assay type: cell-based; conditions: compound nos. 1-454; for Emax: 100% efficacy is the maximum response obtained with the Carbachol control, read-out: M4 Efficacy; for M4 Activity: M4-CHO cells, calcium mobilization
T1 construct: expressed in transfected cells; host or cells: CHO cells (M4-CHO, under puromycin, zeocin and blasticidin selection)
T1 sequence (P08173 1-479): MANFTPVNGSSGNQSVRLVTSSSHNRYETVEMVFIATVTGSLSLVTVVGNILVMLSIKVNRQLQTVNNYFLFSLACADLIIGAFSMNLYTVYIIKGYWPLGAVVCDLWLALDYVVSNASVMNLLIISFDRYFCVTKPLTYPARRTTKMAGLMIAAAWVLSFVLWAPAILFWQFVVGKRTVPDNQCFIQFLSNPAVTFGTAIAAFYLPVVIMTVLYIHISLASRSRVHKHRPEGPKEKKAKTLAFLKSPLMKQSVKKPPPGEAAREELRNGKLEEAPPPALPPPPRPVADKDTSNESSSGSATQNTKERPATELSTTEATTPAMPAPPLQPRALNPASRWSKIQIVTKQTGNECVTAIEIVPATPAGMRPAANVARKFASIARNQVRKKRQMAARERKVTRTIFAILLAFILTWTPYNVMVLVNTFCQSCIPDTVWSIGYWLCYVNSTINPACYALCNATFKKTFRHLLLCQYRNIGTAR
How it was run: (§1)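 Intracellular calcium was tracked by fluorescence (488/540 nm) over 60 sec after compound addition to dye-loaded CHO cells expressing the receptor. Inhibitory activity used a 15 min pre-incubation before carbachol at the subtype EC80.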

M1 muscarinic receptor = molecular target: T2, M1 muscarinic receptor (Homo sapiens, UniProt P11229); experiment: Functional mobilization of intracellular calcium (FLIPR, Fluo-3), M1-CHO cells; assay type: cell-based; conditions: compound nos. 1-454; for Emax: 100% efficacy is the maximum response obtained with the Carbachol control, read-out: M1 Efficacy; for M1 Activity: M1-CHO cells, calcium mobilization
T2 construct: expressed in transfected cells; host or cells: CHO cells (M1-CHO, under zeocin and G418 selection)
T2 sequence (P11229 1-460): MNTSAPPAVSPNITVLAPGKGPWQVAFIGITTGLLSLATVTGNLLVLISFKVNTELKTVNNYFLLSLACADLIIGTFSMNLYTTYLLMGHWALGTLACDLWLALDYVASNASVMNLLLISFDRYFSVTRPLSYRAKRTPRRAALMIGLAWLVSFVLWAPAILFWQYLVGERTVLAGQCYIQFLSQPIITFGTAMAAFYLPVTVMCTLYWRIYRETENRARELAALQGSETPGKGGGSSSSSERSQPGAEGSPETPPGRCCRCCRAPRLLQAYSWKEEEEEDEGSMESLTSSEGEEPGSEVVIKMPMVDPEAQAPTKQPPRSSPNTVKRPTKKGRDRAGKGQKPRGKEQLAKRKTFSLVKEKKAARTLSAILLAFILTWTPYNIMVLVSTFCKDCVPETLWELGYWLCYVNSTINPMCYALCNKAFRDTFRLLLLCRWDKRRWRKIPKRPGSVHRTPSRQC
How it was run: as §1

Compound | Emax (M4 muscarinic receptor) [%] | M4 Activity (M4 muscarinic receptor) | Emax (M1 muscarinic receptor) [%] | M1 Activity (M1 muscarinic receptor)
Fc1ccc2c(c1)C1(CCN(C[C@H]3C[C@H]4CC[C@H]3C4)CC1)CO2 [compound 207] | < 55 | + (activity was measured to be greater than or equal to 4.0 μM) | 65 to 85 | ++ (activity was measured to be between 0.7 μM and 3.0 μM)
Cc1ccc2c(c1)C1(CCN(C3CC4CCC3C4)CC1)CN2C(=O)c1cc(C)on1 (stereo not shown) [compound 208] | < 55 | + (activity was measured to be greater than or equal to 4.0 μM) | < 65 | ++ (activity was measured to be between 0.7 μM and 3.0 μM)
CN(C)C(=O)N1CC2(CCN(C3CCN(C(=O)O[C@@H]4CCOC4)CC3)CC2)c2cc(F)ccc21 [compound 209] | < 55 | + (activity was measured to be greater than or equal to 4.0 μM) | > 85 | ++ (activity was measured to be between 0.7 μM and 3.0 μM)
CC(=O)N1CC2(CCN(C3CCCCCC3)CC2)c2cc(F)ccc21 [compound 210] | < 55 | + (activity was measured to be greater than or equal to 4.0 μM) | 65 to 85 | ++ (activity was measured to be between 0.7 μM and 3.0 μM)
Cc1ccc2c(c1)C1(CCN(C3CC4CCC3C4)CC1)CN2C(=O)c1cc(C)n(C)n1 (stereo not shown) [compound 211] | < 55 | + (activity was measured to be greater than or equal to 4.0 μM) | 65 to 85 | + (activity was measured to be greater than or equal to 3.0 μM)
O=C(O[C@H]1CCOC1)N1C2CCC1CC(N1CCC3(CC1)COc1ccc(F)cc13)C2 (stereo partly shown) [compound 212] | < 55 | + (activity was measured to be greater than or equal to 4.0 μM) | < 65 | + (activity was measured to be greater than or equal to 3.0 μM)
CC(=O)NC1CC2(CCN(C[C@H]3C[C@H]4C=C[C@H]3C4)CC2)c2ccccc21 (stereo partly shown) [compound 213] | < 55 | + (activity was measured to be greater than or equal to 4.0 μM) | 65 to 85 | ++ (activity was measured to be between 0.7 μM and 3.0 μM)
CCOC(=O)N1C2CCC1CC(N1CCC3(CC1)CN(C(=O)C1CC1)c1ccc(F)cc13)C2 (stereo not shown) [compound 214] | < 55 | + (activity was measured to be greater than or equal to 4.0 μM) | < 65 | + (activity was measured to be greater than or equal to 3.0 μM)
COCCOC(=O)N1C2CCC1CC(N1CCC3(CC1)CN(C(=O)O[C@@H]1CCOC1)c1ccc(F)cc13)C2 (stereo partly shown) [compound 216] | < 55 | + (activity was measured to be greater than or equal to 4.0 μM) | > 85 | +++ (activity was measured to be less than or equal to 0.7 μM)
O=C(OC1CCC1)N1C2CCC1CC(N1CCC3(CC1)C(=O)Nc1ccccc13)C2 (stereo not shown) [compound 217] | < 55 | + (activity was measured to be greater than or equal to 4.0 μM) | < 65 | ++ (activity was measured to be between 0.7 μM and 3.0 μM)
CCNC(=O)N1C2CCC1CC(N1CCC3(CC1)COc1ccc(F)cc13)C2 (stereo not shown) [compound 219] | < 55 | + (activity was measured to be greater than or equal to 4.0 μM) | 65 to 85 | + (activity was measured to be greater than or equal to 3.0 μM)
CCCCOC(=O)N1CC2(CCN(C3CCN(C(=O)OCC)CC3)CC2)c2cc(F)ccc21 [compound 220] | < 55 | + (activity was measured to be greater than or equal to 4.0 μM) | 65 to 85 | + (activity was measured to be greater than or equal to 3.0 μM)
CCOC(=O)N1CCC(N2CCC3(CC2)CN(C(C)=O)c2ccc(-c4ccc(C(C)=O)cc4)cc23)CC1 [compound 221] | < 55 | + (activity was measured to be greater than or equal to 4.0 μM) | 65 to 85 | ++ (activity was measured to be between 0.7 μM and 3.0 μM)
CCOC(=O)N1C2CCC1CC(N1CCC3(CC1)CN(C(=O)c1ccc(F)cc1)c1ccc(F)cc13)C2 (stereo not shown) [compound 222] | < 55 | + (activity was measured to be greater than or equal to 4.0 μM) | < 65 | + (activity was measured to be greater than or equal to 3.0 μM)
CCOC(=O)N1CCC(N2CCC3(CC2)CN(C(=O)N(CC)CC)c2ccc(F)cc23)CC1 [compound 223] | < 55 | + (activity was measured to be greater than or equal to 4.0 μM) | < 65 | + (activity was measured to be greater than or equal to 3.0 μM)
Clc1ccc2c(c1)C1(CCN(C3CC4CCC3C4)CC1)CN2 (stereo not shown) [compound 224] | < 55 | + (activity was measured to be greater than or equal to 4.0 μM) | 65 to 85 | + (activity was measured to be greater than or equal to 3.0 μM)
CCOC(=O)N1CCC(N2CCC3(CC2)CN(C(C)=O)c2ccc(OC(F)(F)F)cc23)CC1 [compound 225] | < 55 | + (activity was measured to be greater than or equal to 4.0 μM) | < 65 | + (activity was measured to be greater than or equal to 3.0 μM)
CC(=O)N1CC2(CCN(C3CCC(C(C)C)CC3)CC2)c2cc(F)ccc21 (stereo not shown) [compound 226] | < 55 | + (activity was measured to be greater than or equal to 4.0 μM) | < 65 | + (activity was measured to be greater than or equal to 3.0 μM)
CS(=O)(=O)N[C@@H]1CC2(CCN(C[C@H]3C[C@H]4CC[C@H]3C4)CC2)c2ccccc21 [compound 227] | > 70 | +++ (activity was measured to be less than or equal to 0.1 μM) | > 85 | +++ (activity was measured to be less than or equal to 0.7 μM)
CCOC(=O)C1CCC(N2CCC3(CC2)CN(C(C)=O)c2ccc(F)cc23)CC1 (stereo not shown) [compound 228] | < 55 | + (activity was measured to be greater than or equal to 4.0 μM) | < 65 | + (activity was measured to be greater than or equal to 3.0 μM)
CCOC(=O)N1CCC(N2CCC3(CC2)CN(CCC(=O)CC)c2ccc(F)cc23)CC1 [compound 229] | > 70 | +++ (activity was measured to be less than or equal to 0.1 μM) | < 65 | ++ (activity was measured to be between 0.7 μM and 3.0 μM)
C#CCCOC(=O)N1C2CCC1CC(N1CCC3(CC1)CN(C(=O)N(C)C)c1ccc(F)cc13)C2 (stereo not shown) [compound 230] | > 70 | ++ (activity was measured to be between 0.1 μM and 4.0 μM) | < 65 | + (activity was measured to be greater than or equal to 3.0 μM)
Cc1ccc2c(c1)C1(CCN(C3CC4CCC3C4)CC1)CN2S(C)(=O)=O (stereo not shown) [compound 232] | > 70 | +++ (activity was measured to be less than or equal to 0.1 μM) | < 65 | ++ (activity was measured to be between 0.7 μM and 3.0 μM)
Cc1cc(C(=O)N2CC3(CCN(C4CC5CCC(C4)N5C(=O)O[C@H]4CCOC4)CC3)c3cc(F)ccc32)nn1C (stereo partly shown) [compound 233] | > 70 | +++ (activity was measured to be less than or equal to 0.1 μM) | 65 to 85 | +++ (activity was measured to be less than or equal to 0.7 μM)
CCOC(=O)N1CCC(N2CCC3(CC2)CN(C(C)=O)c2ccc(-c4cccnc4)cc23)CC1 [compound 234] | 55 to 70 | +++ (activity was measured to be less than or equal to 0.1 μM) | 65 to 85 | +++ (activity was measured to be less than or equal to 0.7 μM)
